Consider 27 molecules from US20250034185A1 (priority 2021, published 2025).
For P5P formed in this document: test concentration or dose not given here.

The data set has as its system plasma enzymes. To be noted: Sprague Dawley, rat.
As for `Cc1ncc(COP(=O)(N[C@@H](C)C(=O)OC(C)C)Oc2ccccc2)c(CN)c1O` (stereo partly drawn) [Compound 14, (2S)-Isopropyl 2-(((4-(aminomethyl)-5-hydroxy-6-methylpyridin-3-yl)methoxy)(phenoxy)phosphorylamino)propanoate], the P5P formed is 0 µM and the “relative P5P formed” value worked out at 0.0%.
The corresponding values for `CCC(CC)COC(=O)[C@H](C)NP(=O)(OCc1cnc(C)c(O)c1CN)Oc1ccccc1` (stereo partly drawn) [Compound 14i, (2S)-2-Ethylbutyl 2-(((4-(aminomethyl)-5-hydroxy-6-methylpyridin-3-yl)methoxy)(phenoxy)phosphorylamino)propanoate] are 0.17 µM and 4.0%.
Turning to `Cc1ncc(COP(=O)(NCC(=O)OC(C)C)Oc2ccccc2)c(CN)c1O` (stereo not drawn) [Compound 14ii, Isopropyl 2-(((4-(aminomethyl)-5-hydroxy-6-methylpyridin-3-yl)methoxy)(phenoxy)phosphorylamino)acetate], the P5P formed is 0 µM and the “relative P5P formed” value came out at 0.0%.
As for `Cc1ncc(COP(=O)(N[C@@H](C)C(=O)OCc2ccccc2)Oc2ccccc2)c(CN)c1O` (stereo partly drawn) [Compound 14iii, (2S)-Benzyl 2-(((4-(aminomethyl)-5-hydroxy-6-methylpyridin-3-yl)methoxy)(phenoxy)phosphorylamino)propanoate], the P5P formed was 0.7 µM and the “relative P5P formed” value came out at 6.7%.
The corresponding values for `Cc1ncc(COP(=O)(N[C@@H](C)C(=O)OC(C)C)Oc2cccc3ccccc23)c(CN)c1O` (stereo partly drawn) [Compound 14ix, (2S)-Isopropyl 2-(((4-(aminomethyl)-5-hydroxy-6-methylpyridin-3-yl)methoxy)(naphthalen-1-yloxy)phosphorylamino)propanoate] are 0.4 µM and 6.3%.
With `Cc1ncc(COP(=O)(N[C@@H](C)C(=O)OC(C)C)Oc2ccc(Cl)cc2)c(CN)c1O` (stereo partly drawn) [Compound 14v, (2S)-Isopropyl 2-(((4-(aminomethyl)-5-hydroxy-6-methylpyridin-3-yl)methoxy)(4-chlorophenoxy)phosphorylamino)propanoate], the P5P formed was 0.3 µM and the “relative P5P formed” value is 11.1%.
The like results for `Cc1ccc(OC(=O)[C@H](C)NP(=O)(OCc2cnc(C)c(O)c2CN)Oc2ccccc2)cc1` (stereo partly drawn) [Compound 14vii, (2S)-p-Tolyl 2-(((4-(aminomethyl)-5-hydroxy-6-methylpyridin-3-yl)methoxy)(phenoxy)phosphorylamino)propanoate] were, in that order, 0.5 µM and 12.2%.
`[2H]C([2H])([2H])C(OC(=O)[C@H](C)NP(=O)(OCc1cnc(C)c(O)c1CN)Oc1ccccc1)C([2H])([2H])[2H]` (stereo partly drawn) [Compound 14viii]: the P5P formed was 0.3 µM and the “relative P5P formed” value was 17.6%.
Consider `Cc1ncc(COP(=O)(N[C@@H](C)C(=O)OC2CCCC2)Oc2ccccc2)c(CN)c1O` (stereo partly drawn) [Compound 14x, (2S)-Cyclopentyl 2-(((4-(aminomethyl)-5-hydroxy-6-methylpyridin-3-yl)methoxy)(phenoxy)phosphorylamino)propanoate], for which the P5P formed stood at 0.3 µM and the “relative P5P formed” value was found to be 11.1%.
Take `Cc1ncc(COP(=O)(N[C@@H](C)C(=O)OC(C)C)Oc2ccc(OC(F)(F)F)cc2)c(CN)c1O` (stereo partly drawn) [Compound 14xi, (2S)-Isopropyl 2-(((4-(aminomethyl)-5-hydroxy-6-methylpyridin-3-yl)methoxy)(4-(trifluoromethoxy)phenoxy)phosphorylamino)propanoate]: the P5P formed was found to be 0.3 µM and the “relative P5P formed” value came to 17.6%.
Turning to `Cc1ncc(COP(=O)(N[C@@H](C)C(=O)Oc2ccc3c(c2)CCCC3)Oc2ccccc2)c(CN)c1O` (stereo partly drawn) [Compound 14xii, (2S)-5,6,7,8-Tetrahydronaphthalen-2-yl 2-(((4-(aminomethyl)-5-hydroxy-6-methylpyridin-3-yl)methoxy)(phenoxy)phosphorylamino)propanoate], the P5P formed is 0.2 µM and the “relative P5P formed” value was 5.3%.
Consider `[2H]C([2H])(NP(=O)(OCc1cnc(C)c(O)c1CN)Oc1ccccc1)C(=O)OC(C([2H])([2H])[2H])C([2H])([2H])[2H]` (stereo not drawn) [Compound 14xiii], for which the P5P formed amounted to 0.3 µM and the “relative P5P formed” value was determined as 17.6%.
On to `Cc1ncc(COP(=O)(N[C@@H](Cc2ccc(OCc3ccccc3)cc2)C(=O)OC(C)C)Oc2ccccc2)c(CN)c1O` (stereo partly drawn) [Compound 14xiv, (2S)-Isopropyl 2-(((4-(aminomethyl)-5-hydroxy-6-methylpyridin-3-yl)methoxy)(phenoxy)phosphorylamino)-3-(4-(benzyloxy)phenyl)propanoate], for which the P5P formed was 0.3 µM and the “relative P5P formed” value is 8.3%.
In the case of `Cc1ncc(COP(=O)(N[C@@H](C)C(=O)OC2CCN(C)CC2)Oc2ccccc2)c(CN)c1O` (stereo partly drawn) [Compound 14xv, (2S)-1-Methylpiperidin-4-yl 2-(((4-(aminomethyl)-5-hydroxy-6-methylpyridin-3-yl)methoxy)(phenoxy)phosphorylamino)propanoate], the P5P formed was 0.3 µM and the “relative P5P formed” value is reported as 10.3%.
As to `Cc1ccc(OP(=O)(N[C@@H](C)C(=O)OC(C)C)OCc2cnc(C)c(O)c2CN)cc1` (stereo partly drawn) [Compound 14xvi, (2S)-Isopropyl 2-(((4-(aminomethyl)-5-hydroxy-6-methylpyridin-3-yl)methoxy)(p-tolyloxy)phosphorylamino)propanoate], the P5P formed came to 0.3 µM and the “relative P5P formed” value was determined as 10.3%.
As to `Cc1ncc(COP(=O)(N[C@@H](C)C(=O)Oc2ccc(Cl)cc2)Oc2ccccc2)c(CN)c1O` (stereo partly drawn) [Compound 14xvii, (2S)-4-Chlorophenyl 2-(((4-(aminomethyl)-5-hydroxy-6-methylpyridin-3-yl)methoxy)(phenoxy)phosphorylamino)propanoate], the P5P formed was found to be 6.6 µM and the “relative P5P formed” value is on record as 194.1%.
The corresponding values for `Cc1ncc(COP(=O)(N[C@@H](C)C(=O)OC(C)C)Oc2ccc(Br)cc2F)c(CN)c1O` (stereo partly drawn) [Compound 14xviii, (2S)-Isopropyl 2-(((4-(aminomethyl)-5-hydroxy-6-methylpyridin-3-yl)methoxy)(4-bromo-2-fluorophenoxy)phosphorylamino)propanoate] are 2.4 µM and 96.0%.
Consider `Cc1ncc(CO[P@@](=O)(N[C@@H](C)C(=O)OC(C)C)Oc2ccccc2)c(CO)c1O` [Compound 15i, (S)-Isopropyl 2-((S)-((5-hydroxy-4-(hydroxymethyl)-6-methylpyridin-3-yl)methoxy)(phenoxy)phosphorylamino)propanoate], for which the P5P formed stood at 0.15 µM and the “relative P5P formed” value is listed as 2.6%.
The corresponding values for `Cc1ncc(COP(=O)(N[C@@H](C)C(=O)OC(C)C)Oc2ccccc2)c(CO)c1O` (stereo partly drawn) [Compound 15ii, (S)-Isopropyl 2-((R)-((5-hydroxy-4-(hydroxymethyl)-6-methylpyridin-3-yl)methoxy)(phenoxy)phosphorylamino)propanoate] are 0 µM and 0.0%.
Turning to `Cc1ncc(COP(=O)(N[C@@H](C)C(=O)OC(C)C)Oc2ccc(Cl)c(Cl)c2)c(CO)c1O` (stereo partly drawn) [Compound 15iii, (2S)-Isopropyl 2-((3,4-dichlorophenoxy)((5-hydroxy-4-(hydroxymethyl)-6-methylpyridin-3-yl)methoxy)phosphorylamino)propanoate], the P5P formed is 0.4 µM and the “relative P5P formed” value was determined as 7.4%.
For the molecule `Cc1ncc(COP(=O)(N[C@@H](C)C(=O)Oc2ccc3ccccc3c2)Oc2ccccc2)c(CO)c1O` (stereo partly drawn) [Compound 15iv, (2S)-Naphthalen-2-yl 2-(((5-hydroxy-4-(hydroxymethyl)-6-methylpyridin-3-yl)methoxy)(phenoxy)phosphorylamino)propanoate], the P5P formed was 0.65 µM and the “relative P5P formed” value came out at 6.2%.
The corresponding values for `COC(=O)[C@H](C)NP(=O)(OCc1cnc(C)c(O)c1CO)Oc1ccccc1` (stereo partly drawn) [Compound 15vi, (2S)-Methyl 2-(((5-hydroxy-4-(hydroxymethyl)-6-methylpyridin-3-yl)methoxy)(phenoxy)phosphorylamino)propanoate] are 0 µM and 0.0%.
The like results for `Cc1ncc(COP(=O)(N[C@@H](C)C(=O)OCC2CCCC2)Oc2ccccc2)c(CO)c1O` (stereo partly drawn) [Compound 15vii, (2S)-Cyclopentylmethyl 2-(((5-hydroxy-4-(hydroxymethyl)-6-methylpyridin-3-yl)methoxy)(phenoxy)phosphorylamino)propanoate] were, in that order, 0 µM and 0.0%.
For `Cc1ncc(COP(=O)(N[C@@H](C)C(=O)OC(C)C)Oc2cccc3ccccc23)c(CO)c1O` (stereo partly drawn) [Compound 15x, (2S)-Isopropyl 2-(((5-hydroxy-4-(hydroxymethyl)-6-methylpyridin-3-yl)methoxy)(naphthalen-1-yloxy)phosphorylamino)propanoate], the P5P formed amounted to 0 µM and the “relative P5P formed” value is 0.0%.
On to `Cc1ncc(COP(=O)(N[C@@H](C)C(=O)OCc2ccccc2)Oc2ccccc2)c(CO)c1O` (stereo partly drawn) [Compound 15xi, (2S)-Benzyl 2-(((5-hydroxy-4-(hydroxymethyl)-6-methylpyridin-3-yl)methoxy)(phenoxy)phosphorylamino)propanoate], for which the P5P formed was 1.1 µM and the “relative P5P formed” value is given as 10.5%.
Take `Cc1ncc(COP(=O)(N[C@H](C(=O)OC(C)C)C2CCCC2)Oc2ccccc2)c(CO)c1O` (stereo partly drawn) [Compound 15xii, (2S)-Isopropyl 2-cyclopentyl-2-(((5-hydroxy-4-(hydroxymethyl)-6-methylpyridin-3-yl)methoxy)(phenoxy)phosphorylamino)acetate]: the P5P formed came out at 0.2 µM and the “relative P5P formed” value came to 7.4%.
For `Cc1ncc(COP(=O)(N[C@@H](CC(C)C)C(=O)OC(C)C)Oc2ccccc2)c(CO)c1O` (stereo partly drawn) [Compound 15xiii, (2S)-Isopropyl 2-(((5-hydroxy-4-(hydroxymethyl)-6-methylpyridin-3-yl)methoxy)(phenoxy)phosphorylamino)-4-methylpentanoate], the P5P formed stood at 0.8 µM and the “relative P5P formed” value is 15.7%.
